Patent US8765769B2, “Ring-fused 4-aminopyrimidines and use thereof as stimulators of soluable guanylate cyclases” (Bayer Intellectual Property GmbH, priority 2010, dated 2014)

Experiments:
[1] = system: recombinant guanylate cyclase reporter cell line; experiment: Effect on a recombinant guanylate cyclase reporter cell line; assay type: cell-based; conditions: recombinant guanylate cyclase reporter cell line (Wunder et al. 2005)
Protocol: B-2. Effect on a Recombinant Guanylate Cyclase Reporter Cell Line
The cellular action of the inventive compounds is determined on a recombinant guanylate cyclase reporter cell line as described in F. Wunder et al., Anal. Biochem. 339, 104-112 (2005).

rabbit aorta rings = experiment: Vasorelaxant action in vitro (phenylephrine-contracted rabbit aorta rings); conditions: Oryctolagus cuniculus; concentration reducing the phenylephrine-induced contraction of rabbit aorta rings by 50%; DMSO 0.1%
Protocol: B-1. Vasorelaxant Action In Vitro
Rabbits are stunned by a blow to the neck and exsanguinated. The aorta is removed, freed from adhering tissue and divided into rings of width 1.5 mm, which are placed individually under prestress into 5 ml organ baths with carbogen-sparged Krebs-Henseleit solution at 37° C. having the following composition (each mM): sodium chloride 119; potassium chloride: 4.8; calcium chloride dihydrate: 1; magnesium sulfate heptahydrate: 1.4; potassium dihydrogenphosphate: 1.2; sodium hydrogencarbonate: 25; glucose: 10. The contractile force is determined with Statham UC2 cells, amplified and digitalized using A/D transducers (DAS-1802 HC, Keithley Instruments Munich), and recorded in parallel on linear recorders. To obtain a contraction, phenylephrine is added to the bath cumulatively in increasing concentration. After several control cycles, the substance to be studied is added in increasing dosage each time in every further run, and the magnitude of the contraction is compared with the magnitude of the contraction attained in the last preceding run. This is used to calculate the concentration needed to reduce the magnitude of the control value by 50% (IC50 value). The standard administration volume is […]; the DMSO content in the bath solution corresponds to 0.1%.

IC50 (rabbit aorta rings) [nM] | SMILES | MEC (minimal effective concentration) [1] [µM]
48 | CC1(C)C(=O)Nc2nc(-c3nn(Cc4ccccc4F)c4ncccc34)nc(N)c21 [Example 2, 4-amino-2-[1-(2-fluorobenzyl)-1H-pyrazolo[3,4-b]pyridin-3-yl]-5,5-dimethyl-5,7-dihydro-6H-pyrrolo[2,3-d]pyrimidin-6-one] | 0.001
9.3 | CC1(C)C(=O)Nc2nc(-c3nn(Cc4ccccc4F)c4ncc(F)cc34)nc(N)c21 [Example 3, 4-amino-2-[5-fluoro-1-(2-fluorobenzyl)-1H-pyrazolo[3,4-b]pyridin-3-yl]-5,5-dimethyl-5,7-dihydro-6H-pyrrolo[2,3-d]pyrimidin-6-one] | 0.001
24 | Nc1nc(-c2nn(Cc3ccccc3F)c3ncccc23)nc2c1C1(CCOC1)C(=O)N2 (stereo not drawn) [Example 4, 4′-amino-2′-[1-(2-fluorobenzyl)-1H-pyrazolo[3,4-b]pyridin-3-yl]-4,5-dihydrospiro[furan-3,5′-pyrrolo[2,3-d]pyrimidine]-6′(7′H)-one] | 0.003
